From US9206412B2, “Thioxothiazolidine inhibitors” (Colorado State University Research Foundation, priority 2012, dated 2015)
Several values for one entry are separate records, joined by “and”; a condition that tells them apart may be missing. Equal entries are not always repeated. Where two headings read alike, the source gives them in different places.

Columns and labels:
[1] = system: dengue type 2 virus subgenomic replicon (BHK-pD2hRucPac); assay: Antiviral (replicon) assay, Renilla luciferase; type: cell-based; conditions: Table 2-1; read-out: Replicon Assay_EC50_M
[2] = system: BHK-pD2hRucPac cells; assay: Cell viability (CellTiter-Glo) in replicon assay; conditions: read-out: Replicon Assay_CC50_M; Table 2-1
[3] = biological target: yellow fever virus capping enzyme (Yellow fever virus, UniProt P03314); assay: biochemical; type: binding, yellow fever virus (strain 17D); conditions: read-out: FP_YF_KI_AVG_YF_M
Sequence of yellow fever virus capping enzyme (P03314 2507-2774 limits assumed): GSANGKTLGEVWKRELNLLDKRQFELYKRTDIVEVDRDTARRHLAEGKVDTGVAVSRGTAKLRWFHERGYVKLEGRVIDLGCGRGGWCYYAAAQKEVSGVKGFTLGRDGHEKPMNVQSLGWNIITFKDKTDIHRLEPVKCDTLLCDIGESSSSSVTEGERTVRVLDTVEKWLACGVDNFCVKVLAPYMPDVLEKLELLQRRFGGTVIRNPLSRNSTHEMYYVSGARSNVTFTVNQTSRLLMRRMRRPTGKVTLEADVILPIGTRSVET

[4] = biological target: T1, dengue virus capping enzyme (Dengue virus type 2, UniProt P29990); assay: biochemical; type: binding, dengue virus type 2 (strain 16681)
T1 sequence (P29990 2492-2758): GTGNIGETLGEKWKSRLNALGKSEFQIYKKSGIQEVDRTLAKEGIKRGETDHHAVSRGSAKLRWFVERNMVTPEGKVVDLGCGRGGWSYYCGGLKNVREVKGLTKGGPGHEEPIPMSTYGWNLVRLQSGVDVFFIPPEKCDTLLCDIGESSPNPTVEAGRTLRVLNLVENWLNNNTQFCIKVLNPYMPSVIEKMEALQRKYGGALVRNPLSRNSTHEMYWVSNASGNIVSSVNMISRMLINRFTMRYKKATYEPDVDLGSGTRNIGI

Row | Compound | EC50 [1] | CC50 [2] | Ki [3] [µM] | Ki ([4]; read-out: FP_DEN_Ki_AVG_DEN_M) [µM] | Ki ([4]; Ki (GTP displacement)) | Ki ([4]; read-out: Ki (GTP displacement)) [µM]
1 | O=C(CCN1C(=O)/C(=C/c2ccccc2Cl)SC1=S)Nc1ccccc1C(=O)O [BG289] | 92 µM | 79 µM | – | – | – | –
2 | COc1cccc(/C=C2\SC(=S)N(CC(=O)O)C2=O)c1OC [BG311] | – | 100 µM | 34 | – | – | –
3 | O=C(O)CCN1C(=O)/C(=C/c2ccc(-c3cccc(Cl)c3)o2)SC1=S [BG188] | 51 µM | 51 µM | – | – | – | –
4 | CCN(CC)c1ccc(N2C(=O)/C(=C/c3ccc(C(=O)O)cc3)SC2=S)cc1 [BG125] | – | 15 µM | 3 | 2 | – | –
5 | CC(C)C(C(=O)O)N1C(=O)/C(=C/c2ccccc2Cl)SC1=S (stereo not shown) [BG134] | 61 µM | 66 µM | 15 | 15 | – | –
6 | O=C(O)CN1C(=O)C(=CC=Cc2ccccc2)SC1=S [BG326] | – | – | ≥ 100 | 77 | – | –
7 | O=C(CCN1C(=O)C(=Cc2ccc(Cl)cc2)SC1=S)Nc1ccccc1C(=O)O [BG120] | 23 µM | 31 µM | 2 | 2 | – | –
8 | O=C(O)CN1C(=O)C(=Cc2ccc(Cl)cc2Cl)SC1=S [BG229] | – | – | 25 | 24 | – | –
9 | O=C(CCN1C(=O)/C(=C/c2cccc(Br)c2)SC1=S)Nc1ccccc1C(=O)O [BG291] | 75 µM | 68 µM | – | – | – | –
10 | Cc1cccc(/C=C2\SC(=S)N(CN3CCCCC3)C2=O)c1 [BG136] | 41 µM | 49 µM | 27 | 16 | – | –
11 | O=C(O)CN1C(=O)/C(=C/c2ccc(Cl)cc2Cl)SC1=S [BG-319] | – | – | – | – | 24 µM | –
12 | O=C(O)CCN1C(=O)C(=Cc2ccc(F)cc2)SC1=S [BG-321] | – | – | ≥ 100 | ≥ 100 | – | –
13 | O=C(O)CCN1C(=O)C(=Cc2ccc(-c3ccccc3)o2)SC1=S [BG292] | – | – | – | ≥ 100 | – | –
14 | O=C(O)CCN1C(=O)/C(=C/c2ccc(-c3ccc(Cl)cc3Cl)o2)SC1=S [BG177] | 30 µM and 26 µM | 30 µM and 31 µM | 1 | – | – | –
15 | O=C1NC(=O)C(=Cc2ccccc2[N+](=O)[O-])S1 [BG146] | – | – | 66 | 55 | – | –
16 | O=C(O)CCN1C(=O)C(=Cc2ccccc2)SC1=S [BG-327] | – | – | ≥ 100 | ≥ 100 | – | –
17 | Cc1ccc(N2C(=O)/C(=C/c3ccccc3C(=O)O)SC2=S)c(C)c1 [BG130] | 61 µM | 50 µM | 15 | 8 | – | –
18 | O=C1NC(=O)C(=Cc2ccc(Br)cc2)S1 [BG143] | 50 µM | 60 µM | 24 | 20 | – | –
19 | C=CCOc1ccc(Cl)cc1/C=C1\SC(=S)NC1=O [BG114] | 23 µM | 27 µM | 6 | 2 | – | –
20 | O=C(CCCN1C(=O)/C(=C/c2ccc(F)cc2)SC1=S)Nc1cccc(C(=O)O)c1 [BG124] | 80 µM | 56 µM | 18 | 14 | – | –
21 | O=C(O)CN1C(=O)C(=Cc2cc(Br)ccc2F)SC1=S [BG230] | – | – | 23 | 17 | – | –
22 | CC(=C1SC(=S)NC1=O)c1ccc(C)cc1 [BG137] | 55 µM | 67 µM | 25 | 19 | – | –
23 | CC(C)(C)c1cc(C=C2SC(=S)NC2=O)cc(C(C)(C)C)c1O [BG179] | 15 µM | 20 µM | 1 | 2 | – | –

Row | Compound | EC50 [1] | CC50 [2] | Ki [3] [µM] | Ki ([4]; read-out: FP_DEN_Ki_AVG_DEN_M) [µM] | Ki ([4]; Ki (GTP displacement)) | Ki ([4]; read-out: Ki (GTP displacement)) [µM]
24 | NC(=O)c1c(NC(=O)CN2C(=O)C(=Cc3ccc(Cl)cc3Cl)SC2=S)sc2c1CCCC2 [BG265] | – | – | – | 46 | – | –
25 | O=C(O)CN1C(=O)/C(=C/c2ccc(F)c(Br)c2)SC1=S [BG224] | – | – | 27 | 27 | – | –
26 | O=C(O)CN1C(=O)/C(=C/c2ccc(Cl)c(Cl)c2)SC1=S [BG-318] | – | – | – | – | 11 µM and 11.3 µM | –
27 | O=C1NC(=S)SC1=Cc1ccccc1OS(=O)(=O)c1ccc([N+](=O)[O-])cc1 [BG127] | 109 µM | 40 µM | 6 | 5 | – | –
28 | O=C(O)CCN1C(=O)C(=Cc2ccc(-c3ccc(Br)cc3)o2)SC1=S [BG286] | – | – | – | ≥ 100 | – | –
29 | O=C(O)CN1C(=O)/C(=C/c2ccccc2)SC1=S [BG-325] | – | – | ≥ 100 | ≥ 100 | – | –
30 | CC(C)(C)c1ccc(/C=C2\SC(=S)N(CCC(=O)O)C2=O)cc1 [BG184] | 46 µM | 61 µM | – | – | – | –
31 | COc1cc(C=C2SC(=S)NC2=O)ccc1OS(=O)(=O)c1ccccc1[N+](=O)[O-] [BG141] | 24 µM | 27 µM | 2 | – | – | –
32 | CCc1ccc(/C=C2\SC(=S)N(CCC(=O)Nc3ccc(C(=O)O)cc3)C2=O)cc1 [BG273] | – | – | – | 4 | – | –
33 | CC(C)c1ccc(/C=C2\SC(=S)N(CCC(=O)O)C2=O)cc1 [BG-322] | – | – | – | – | 12 µM | –
34 | CC(C)c1ccc(C=C2SC(=S)N(CCC(=O)O)C2=O)cc1 [BG183] | – | – | 13 | 12 | – | –
35 | O=C(O)CCN1C(=O)/C(=C/c2ccc(-c3ccc(Cl)c(Cl)c3)o2)SC1=S [BG281] | – | – | – | 2 | – | –
36 | CC(C)(C)c1ccc(C=C2SC(=S)N(CCC(=O)NS(C)(=O)=O)C2=O)cc1 [BG297] | 78 µM | 86 µM | – | 3 | – | –
37 | COC(=O)CCN1C(=O)C(=Cc2ccc(Cl)cc2Cl)SC1=S [BG-332] | – | – | ≥ 100 | ≥ 100 | – | –
38 | CC(C(=O)O)N1C(=O)C(=Cc2ccc(Cl)cc2Cl)SC1=S (stereo not shown) [BG133] | 126 µM | 77 µM | 14 | 7 | – | –
39 | O=C(CN1C(=O)/C(=C/c2ccccc2F)SC1=S)Nc1ccccc1C(=O)O [BG132] | 114 µM | 50 µM | 3 | 3 | – | –
40 | CCOc1cc(/C=C2\SC(=S)NC2=O)ccc1OS(=O)(=O)c1ccccc1[N+](=O)[O-] [BG169] | 26 µM | 29 µM | 2 | 2 | – | –
41 | O=C(O)CN1C(=O)C(=Cc2cc(Cl)cc(Cl)c2O)SC1=S [BG225] | – | – | ≥ 100 | ≥ 100 | – | –
42 | O=C(CN1C(=O)S/C(=C\c2ccccc2F)C1=O)Nc1ccccc1C(=O)O [BG142] | 102 µM | 137 µM | 51 | 23 | – | –
43 | CC(C)c1ccc(/C=C2\SC(=S)N(CC(=O)O)C2=O)cc1 [BG182] | 80 µM | 93 µM | 17 | 18 | – | –
44 | O=C(O)CN1C(=O)SC(=Cc2ccc(Cl)cc2)C1=O [BG226] | – | – | ≥ 100 | – | – | –
45 | O=C(O)CN1C(=O)C(=Cc2cccc(Cl)c2Cl)SC1=S [BG227] | – | – | 34 | 27 | – | –
46 | O=C1NC(=S)SC1=Cc1cccc(Cl)c1Cl [BG333] | 9 µM | 11 µM | 12 | 7 | – | –

Row | Compound | EC50 [1] | CC50 [2] | Ki [3] [µM] | Ki ([4]; read-out: FP_DEN_Ki_AVG_DEN_M) [µM] | Ki ([4]; Ki (GTP displacement)) | Ki ([4]; read-out: Ki (GTP displacement)) [µM]
47 | COc1ccccc1C=C1SC(=S)N(CCC(=O)O)C1=O [BG-310] | – | 100 µM | 44 | – | – | –
48 | COc1ccc2nc(N3CCCCC3)c(C=C3SC(=S)NC3=O)cc2c1 [BG168] | 13 µM | 12 µM | 2 | 2 | – | –
49 | O=C(O)C(Cc1ccccc1)N1C(=O)C(=Cc2ccccc2Cl)SC1=S (racemic) [BG135] | 39 µM | 44 µM | 5 | 4 | – | –
50 | CCc1ccc(C=C2SC(=O)NC2=O)cc1 [BG144] | – | – | 38 | 20 | – | –
51 | O=C(O)CCCN1C(=O)/C(=C/c2ccc(Cl)cc2Cl)SC1=S [BG-331] | – | – | 25 | 15 | – | –
52 | O=C(CN1C(=O)C(=Cc2ccccc2Cl)SC1=S)Nc1ccc(C(=O)O)cc1 [BG119] | 42 µM | 58 µM | 5 | 4 | – | –
53 | COc1ccc(OC)c(/C=C2\SC(=S)N(CC(=O)O)C2=O)c1 [BG-309] | – | 100 µM | ≥ 100 | ≥ 100 | – | –
54 | COc1c(I)cc(I)cc1/C=C1\SC(=S)N(CC(=O)O)C1=O [BG308] | 97 µM | 276 µM | 4 | 2 | – | –
55 | O=C(O)CCN1C(=O)/C(=C/c2ccccc2F)SC1=S [BG-329] | – | – | ≥ 100 | ≥ 100 | – | –
56 | CC(C)(C)c1ccc(CC2SC(=S)N(CCC(=O)O)C2=O)cc1 (racemic) [BG296] | 167 µM | 105 µM | – | 10 | – | –
57 | O=C1NC(=O)C(=Cc2cc3c(cc2[N+](=O)[O-])OCO3)S1 [BG145] | – | – | 9 | 8 | – | –
58 | COc1ccc(N2C(=O)/C(=C/c3cc([N+](=O)[O-])cc(OC)c3O)SC2=S)cc1 [BG140] | 13 µM | 23 µM | 2 | – | – | –
59 | CCc1ccc(C=C2SC(=S)N(CCC(=O)Nc3ccccc3C(=O)O)C2=O)cc1 [BG274] | 63 µM | 60 µM | – | – | – | –
60 | O=C(O)CCN1C(=O)C(=Cc2ccc(Cl)c(Cl)c2)SC1=S [BG-328] | – | – | 12 | 14 | – | 13.6
61 | O=C(O)CCN1C(=O)/C(=C/c2ccc(-c3ccccc3Cl)o2)SC1=S [BG290] | – | – | – | ≥ 100 | – | –
62 | O=C1C(=Cc2cccc(Br)c2)SC(=S)N1CN1CCCCC1 [BG21] | – | – | 27 | 42 | – | –
63 | O=C(O)c1ccccc1/C=C1\SC(=S)N(c2cccc(C(F)(F)F)c2)C1=O [BG129] | – | 47 µM | 19 | 11 | – | –
64 | O=C(O)CN1C(=O)C(=Cc2cc(Br)cc(Cl)c2O)SC1=S [BG222] | – | – | ≥ 100 | ≥ 100 | – | –
65 | O=C(O)CN1C(=O)/C(=C/c2ccc(Cl)c(Cl)c2)SC1=S [BG228] | – | – | 16 | 11 | – | –
66 | O=C(O)CN1C(=O)/C(=C/c2cccc(Cl)c2Cl)SC1=S [BG-317] | – | – | – | – | 27 µM | –
67 | COc1ccccc1/C=C1\SC(=O)N(CC(=O)O)C1=O [BG215] | – | 100 µM | – | 866 | – | –
